Results published in patent publication US9249116B2, “Enzyme-activating compounds and compositions” (The Board of Trustees of the University of Illinois, priority 2012, dated 2016).

Columns and labels:
[1] = biological target: T1, procaspase-3 (Homo sapiens, UniProt P42574); test: Procaspase-3 activity assay (relief of zinc-mediated inhibition, Ac-DEVD-pNA cleavage); assay type: biochemical; settings: procaspase-3 incubated with […] ZnSO4; method gives compounds at 25 μM
T1 construct: 6xHis (C); made in house; host or cells: Rosetta E. coli
T1 sequence (P42574 1-277): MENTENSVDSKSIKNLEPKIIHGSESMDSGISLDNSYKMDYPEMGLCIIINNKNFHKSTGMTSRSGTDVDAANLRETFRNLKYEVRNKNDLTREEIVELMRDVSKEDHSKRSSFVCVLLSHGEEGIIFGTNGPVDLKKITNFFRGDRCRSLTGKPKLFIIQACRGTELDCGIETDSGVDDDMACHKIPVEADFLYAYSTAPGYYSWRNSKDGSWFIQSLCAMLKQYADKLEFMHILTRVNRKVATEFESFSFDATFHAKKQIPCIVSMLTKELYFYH
Experimental: The six confirmed hits were then evaluated in vitro for their ability to relieve zinc-mediated inhibition of procaspase-3 (Table A). In this experiment, procaspase-3 was incubated with ZnSO4, conditions in which procaspase-3 has no enzymatic activity.
Techniques adapted from Hergenrother and coworkers (Putt et al., Nat Chem Biol 2006, 2, 543-550). A 20 mL volume of an overnight culture of Rosetta E. coli containing the procaspase-3 (wild-type) expression plasmid was seeded into 2 L of LB media containing ampicillin. The culture was grown to an OD600=1.0, at which point protein expression was induced via addition of IPTG (to 1 mM); the culture was allowed to grow for 30 additional minutes. Cells were then harvested (10 minute spins at 10,000×g and re-suspended in NTA binding buffer (300 mM NaCl, 50 mM Tris, 10 mM imidazole, pH 8.0). The cells were lysed on ice via sonication. The cell lysate was then spun at 35,000×g for […] The supernatant was decanted and 1 mL of nickel-NTA resin was added. The cell lysate was incubated for 45 minutes at 4° C. The resin was loaded on a column, washed with 10 mL NTA binding buffer followed by 10 mL NTA wash buffer (300 mM NaCl, 50 mM Tris, 50 mM imidazole, pH 8.0). The proteins were eluted in 0.5 mL fractions with 10 mL of NTA elution buffer (300 mM NaCl, 50 mM Tris, 500 mM imidazole, pH 8.0). Fractions containing protein were pooled and further purified to remove any contaminating zinc by applying the protein to a PD-10 column (GE Healthcare) charged with Caspase Activity Buffer that had been treated with Chelex® resin. The resulting concentration was determined using the Edelhoch method and the molar absorptivity of procaspase-3 of 26150 M^−1 cm^−1. Protein stocks were flash-frozen in liquid nitrogen and stored at −80° C.
In a 384-well plate recombinantly expressed, zinc-free procaspase-3 (wild type, at 1 μM) in Caspase Activity Buffer (50 mM HEPES, 300 mM NaCl, 1.5 mM TCEP, 0.01% TritonX-100) was incubated at 37° C. in the presence of 3.5 μM ZnSO4 and the basal activity was assessed via the addition of Ac-DEVD-pNA (final concentration in well of 200 μM). The absorbance at 405 nm was monitored with a SpectraMax plate reader (Molecular Devices). […] Activity of each treatment was assessed at 5, 20, 40 and 60 minutes via 5-minute kinetic reads. The slope of each data set was used to determine the activity of the protein. Activity was normalized to a percent activity at each time point using a zinc-free sample and a zinc-inhibited sample treated with DMSO.

[2] = system: mice; test: Assessment of toxicity in vivo; settings: mouse, in vivo
From the text: The level of toxicity was rated on a scale of 0 (no observable adverse effect) to 3 (severe toxicity, almost fatal).

[3] = Liver microsome stability assay; assay type: in vitro ADME; settings: rat liver microsomes, 10 μM, LC/MS
Experimental: FIG. 4. Liver Microsome Stability Assay. Compounds (10 μM) incubated with liver microsomes for 3 h and quenched with MeCN containing internal standard, analyzed by LC/MS (280 nm). Next, the metabolic stability of the compounds was evaluated in rat liver microsomes. The compounds were evaluated for 3 hours at 10 μM, and the metabolites were observed by LC/MS.

[4] = system: U-937 cells (human lymphoma); test: 72 Hour IC50 cell death assay (sulforhodamine B); assay type: cell-based; settings: U-937, 72 h, read-out: U-937 72 h IC50 (μM)
Experimental: After the synthesis was complete, the biological activity of the compounds was evaluated.
U-937 human lymphoma cells were plated into the wells of 96 well plate at a density of 15,000 cells per well in 99 μL of RPMI 1640 growth media with 10% FBS and 1% pen-strep. To each well was added 1 μL of compound stock solutions in DMSO at varying concentrations such that the cells were treated with concentrations between 0 μM and 100 μM compound. Each concentration was tested in quintuplicate per plate. In each plate 5 wells received 20 μM doxorubicin as a positive death control and 5 wells received 1 μL of DMSO as a negative control.
After the 72 hour incubation period, the plates were analyzed using a Sulforhodamine B assay (Vichai and Kirtikara, Nat Protoc 2006, 1, 1112-1116). Specifically, to each well of the plate 25 μL of a 50% (w/v) solution of trichloroacetic acid in H2O was added and the plates were incubated for 4 hours at 4° C. The plates were then washed gently with water five times. The plates were allowed to air dry after which 100 μL of a 0.057% (w/v) Sulforhodamine B in a 1% (v/v) acetic acid solution was added to each well for 30 minutes at room temperature. The plates were gently washed 5 times with 1% (v/v) acetic acid and air dried. 200 μL of 10 mM Tris base (pH 10.4) was added to each well and the plates were placed on an orbital shaker for thirty minutes. The level of SRB was quantified fluorometrically at excitation and emission wavelengths 488 and 585 nm, respectively, on a Molecular Devices plate reader and the percent cell death calculated and normalized to the positive control (100% cell death) and the negative control (0% cell death). The percent cell death was averaged for each compound concentration and plotted as a function of compound concentration. The data were fit to a logistical dose response curve using Table curve 2D and the IC50 value was calculated. The experiment was repeated three times and the average of the calculated IC50 values was reported. The standard error of the mean (SEM) was determined and reported for the triplicate experiments.

CCc1ccc(CN2CCN(CC(=O)N/N=C/c3cc(C(C)(C)C)cc(C(C)(C)C)c3O)CC2)cc1 [3{28,7}]
Procaspase-3 (% Activity at […]) [1]: 60 ± 2.4%

C=CCc1cccc(/C=N/NC(=O)CN2CCN(Cc3ccccc3)CC2)c1O [PAC-1, Procaspase-Activating Compound 1, reference compound]
Procaspase-3 (% Activity at […]) [1]: 42 ± 1.8% | Mouse Toxicity [2]: 3 | RLM 3 h % Stability [3]: 38 ± 2% | IC50 [4]: 10.2 ± 0.3 µM

C=CCc1cccc(/C=N/NC(=O)CN2CCN(Cc3ccc(S(N)(=O)=O)cc3)CC2)c1O [S-PAC-1, reference compound]
Procaspase-3 (% Activity at […]) [1]: 4 ± 0.6% | RLM 3 h % Stability [3]: reasonably stable | RLM 3 h % Stability ([3]; listed as 2 (S-PAC-1)): 84 ± 0%
